The values that follow come from ChEMBL document CHEMBL4219030, “Progress in the discovery of small molecule modulators of the Cys-loop superfamily receptors” (Bioorg Med Chem Lett, 2017).

The target in test [1] is Glycine receptor subunit alpha-3 (Homo sapiens, UniProt O75311). In words: Positive allosteric modulation of recombinant human glycine receptor alpha3 expressed in CHOK1 cells at -60 mV holding potential by whole cell patch-clamp method. In kind it is cell-based.
For test [2], the target named is Glycine receptor subunit alpha-3 (Homo sapiens) (UniProt O75311). In words: Positive allosteric modulation of recombinant human glycine receptor alpha3 expressed in CHOK1 cells assessed as potentiation of glycine-induced current at 20 uM at -60 mV holding potential by whole cell patch-clamp method relative to glycine. In kind it is cell-based.
Sequence of Glycine receptor subunit alpha-3 (Homo sapiens) (O75311 whole entry): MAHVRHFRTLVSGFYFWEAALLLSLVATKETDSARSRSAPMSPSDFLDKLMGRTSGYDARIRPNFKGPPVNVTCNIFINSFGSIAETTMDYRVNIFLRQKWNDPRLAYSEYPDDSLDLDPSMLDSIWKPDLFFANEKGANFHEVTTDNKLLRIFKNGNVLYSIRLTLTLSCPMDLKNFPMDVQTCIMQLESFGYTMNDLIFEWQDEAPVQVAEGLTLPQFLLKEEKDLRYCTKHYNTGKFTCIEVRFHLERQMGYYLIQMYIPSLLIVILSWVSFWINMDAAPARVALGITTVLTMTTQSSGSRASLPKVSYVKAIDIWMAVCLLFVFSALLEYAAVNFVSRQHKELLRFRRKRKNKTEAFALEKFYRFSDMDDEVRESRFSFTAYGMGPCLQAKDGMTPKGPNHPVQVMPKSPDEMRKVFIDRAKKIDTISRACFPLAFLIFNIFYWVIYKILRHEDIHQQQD
The target of test [3] is T1, Glycine receptor subunit alpha-1 (Homo sapiens) (UniProt P23415).
T1 sequence (whole entry): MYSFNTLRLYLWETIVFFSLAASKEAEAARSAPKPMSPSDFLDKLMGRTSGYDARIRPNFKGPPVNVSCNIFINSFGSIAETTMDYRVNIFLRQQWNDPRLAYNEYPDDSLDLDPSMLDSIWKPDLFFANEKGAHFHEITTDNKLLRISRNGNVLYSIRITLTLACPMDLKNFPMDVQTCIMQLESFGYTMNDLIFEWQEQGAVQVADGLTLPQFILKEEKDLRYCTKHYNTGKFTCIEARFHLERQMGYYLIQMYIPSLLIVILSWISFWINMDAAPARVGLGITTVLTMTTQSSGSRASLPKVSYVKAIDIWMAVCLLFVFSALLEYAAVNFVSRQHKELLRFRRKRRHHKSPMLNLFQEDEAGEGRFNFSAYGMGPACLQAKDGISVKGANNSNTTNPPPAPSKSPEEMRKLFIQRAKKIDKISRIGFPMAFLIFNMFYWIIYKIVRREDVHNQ
In words: Positive allosteric modulation of recombinant human glycine receptor alpha1 expressed in CHOK1 cells assessed as potentiation of glycine-induced current at 10 uM at -60 mV holding potential by whole cell patch-clamp method relative to glycine. In kind it is cell-based.

Test [4] has as its target GABA-A receptor; alpha-1/beta-3/gamma-2 (Homo sapiens) (UniProt P14867+P18507+P28472). Briefly: Positive allosteric modulation of recombinant human GABAA receptor alpha1beta3gamma2 expressed in CHOK1 cells assessed as potentiation of GABA-induced current at 10 uM at -60 mV holding potential by whole cell patch-clamp method relative to GABA. In kind it is cell-based.
The target of test [5] is GABA-A receptor; alpha-2/beta-3/gamma-2 (Homo sapiens) (UniProt P18507+P28472+P47869). Briefly: Positive allosteric modulation of recombinant human GABAA receptor alpha2beta3gamma2 expressed in CHOK1 cells assessed as potentiation of GABA-induced current at 10 uM at -60 mV holding potential by whole cell patch-clamp method relative to GABA. Type of test: cell-based.
In test [6] the target is T2, Glycine receptor subunit alpha-1 (Homo sapiens, UniProt P23415).
T2 sequence (P23415 whole entry): T1 sequence (whole entry)
Briefly: Positive allosteric modulation of human glycine alpha1 receptor expressed in HEK293T cells assessed as glycine-induced increase incurrent response after 18 to 24 hrs by membrane potential blue dye based FLIPR assay. Type of test: cell-based.

For test [7], the target named is Glycine receptor (alpha-1/beta) (Homo sapiens, UniProt P23415+P48167). In words: Positive allosteric modulation of human glycine alpha1beta receptor expressed in HEK293T cells assessed as glycine-induced increase in current response after 18 to 24 hrs by membrane potential blue dye based FLIPR assay. In kind it is cell-based.
Sequence of Glycine receptor (alpha-1/beta) (P48167 whole entry, one chain of several): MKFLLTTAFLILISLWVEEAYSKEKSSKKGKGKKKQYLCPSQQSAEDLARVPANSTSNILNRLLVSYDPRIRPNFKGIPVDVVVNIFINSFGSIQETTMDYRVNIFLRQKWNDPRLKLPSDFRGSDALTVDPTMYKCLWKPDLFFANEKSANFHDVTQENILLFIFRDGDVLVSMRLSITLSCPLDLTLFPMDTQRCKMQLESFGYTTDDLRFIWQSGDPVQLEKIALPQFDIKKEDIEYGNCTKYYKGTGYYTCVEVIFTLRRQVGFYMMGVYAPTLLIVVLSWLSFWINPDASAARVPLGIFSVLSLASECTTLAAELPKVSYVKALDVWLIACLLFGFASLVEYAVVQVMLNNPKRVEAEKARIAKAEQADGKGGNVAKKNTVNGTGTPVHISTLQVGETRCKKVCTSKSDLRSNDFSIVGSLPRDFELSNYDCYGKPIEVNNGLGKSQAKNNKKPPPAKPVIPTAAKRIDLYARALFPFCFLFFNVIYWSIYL
Test [8] has as its target T3, Glycine receptor alpha-3/beta (Homo sapiens, UniProt O75311+P48167). In words: Positive allosteric modulation of human glycine alpha3beta receptor expressed in HEK293T cells assessed as glycine-induced increase in current response after 18 to 24 hrs by membrane potential blue dye based FLIPR assay. Type of test: cell-based.
Test [9] has as its target T3, Glycine receptor alpha-3/beta. Briefly: Positive allosteric modulation of human glycine alpha3beta receptor expressed in HEK293T cells assessed as potentiation of glycine-induced increase in current response after 18 to 24 hrs by membrane potential blue dye based FLIPR assay relative to glycine. In kind it is cell-based.
Test [10] addresses T4, Neuronal acetylcholine receptor; alpha4/beta2 (Homo sapiens, UniProt P17787+P43681). Briefly: Agonist activity at alpha4beta2 nAChR (unknown origin). In kind it is protein-complex assay.
Test [11] concerns the target T4, Neuronal acetylcholine receptor; alpha4/beta2. In words: Inhibition of alpha4beta2 nAChR (unknown origin). In kind it is protein-complex assay.
Test [12] concerns the target T5, 5-hydroxytryptamine receptor 3A (Homo sapiens, UniProt P46098).
T5 sequence (P46098 whole entry): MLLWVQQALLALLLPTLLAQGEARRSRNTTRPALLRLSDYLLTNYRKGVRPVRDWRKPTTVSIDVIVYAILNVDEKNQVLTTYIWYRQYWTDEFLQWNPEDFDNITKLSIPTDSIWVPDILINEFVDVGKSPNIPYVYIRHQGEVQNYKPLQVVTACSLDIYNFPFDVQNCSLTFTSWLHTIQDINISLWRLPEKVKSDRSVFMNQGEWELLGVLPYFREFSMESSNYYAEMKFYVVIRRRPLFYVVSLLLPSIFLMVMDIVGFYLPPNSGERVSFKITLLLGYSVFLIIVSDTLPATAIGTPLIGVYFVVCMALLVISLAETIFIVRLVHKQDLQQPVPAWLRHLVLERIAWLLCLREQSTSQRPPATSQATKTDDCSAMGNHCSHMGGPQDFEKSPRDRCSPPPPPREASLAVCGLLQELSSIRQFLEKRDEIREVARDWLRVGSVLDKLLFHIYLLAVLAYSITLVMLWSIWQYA
Briefly: Agonist activity at 5-HT3 receptor (unknown origin).

Test [13] has as its target T5, 5-hydroxytryptamine receptor 3A. Briefly: Inhibition of 5-HT3 receptor (unknown origin).
For test [14], the target named is Gamma-aminobutyric acid receptor subunit alpha-1/beta-2/gamma-2 (Mus musculus, UniProt P22723+P62812+P63137). In words: Positive allosteric modulation of C57BL/6 mouse GABAA receptor alpha1beta2gamma2 assessed as increase in GABA-induced current response at -60 mV holding potential by whole cell patch-clamp method relative to GABA. In kind it is protein-complex assay.
Sequence of Gamma-aminobutyric acid receptor subunit alpha-1/beta-2/gamma-2 (P22723 whole entry): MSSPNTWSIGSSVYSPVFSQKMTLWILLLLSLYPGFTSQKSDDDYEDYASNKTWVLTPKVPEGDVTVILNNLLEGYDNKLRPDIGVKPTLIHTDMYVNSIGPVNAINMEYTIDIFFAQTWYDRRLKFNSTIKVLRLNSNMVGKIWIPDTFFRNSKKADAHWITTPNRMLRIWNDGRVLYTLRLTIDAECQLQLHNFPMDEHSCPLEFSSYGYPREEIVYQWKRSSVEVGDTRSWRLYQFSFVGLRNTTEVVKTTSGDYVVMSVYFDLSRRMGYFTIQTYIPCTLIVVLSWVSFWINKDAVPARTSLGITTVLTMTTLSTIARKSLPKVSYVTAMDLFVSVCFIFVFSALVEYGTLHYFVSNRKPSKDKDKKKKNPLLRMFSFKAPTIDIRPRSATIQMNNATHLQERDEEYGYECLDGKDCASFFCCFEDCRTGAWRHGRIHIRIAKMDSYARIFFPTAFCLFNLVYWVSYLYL
Sequence of Gamma-aminobutyric acid receptor subunit alpha-1/beta-2/gamma-2 (P62812 whole entry): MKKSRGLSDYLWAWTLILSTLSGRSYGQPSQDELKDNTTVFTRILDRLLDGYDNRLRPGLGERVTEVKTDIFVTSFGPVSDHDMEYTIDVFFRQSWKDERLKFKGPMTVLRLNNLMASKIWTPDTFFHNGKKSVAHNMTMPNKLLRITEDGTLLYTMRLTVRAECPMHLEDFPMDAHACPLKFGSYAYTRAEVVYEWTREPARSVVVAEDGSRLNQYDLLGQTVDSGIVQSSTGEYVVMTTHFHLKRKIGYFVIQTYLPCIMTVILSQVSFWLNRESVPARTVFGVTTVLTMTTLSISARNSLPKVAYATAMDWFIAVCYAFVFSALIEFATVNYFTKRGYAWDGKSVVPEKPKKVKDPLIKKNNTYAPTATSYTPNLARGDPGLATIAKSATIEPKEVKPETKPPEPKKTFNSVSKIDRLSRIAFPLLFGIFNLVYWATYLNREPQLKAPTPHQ
Sequence of Gamma-aminobutyric acid receptor subunit alpha-1/beta-2/gamma-2 (P63137 whole entry): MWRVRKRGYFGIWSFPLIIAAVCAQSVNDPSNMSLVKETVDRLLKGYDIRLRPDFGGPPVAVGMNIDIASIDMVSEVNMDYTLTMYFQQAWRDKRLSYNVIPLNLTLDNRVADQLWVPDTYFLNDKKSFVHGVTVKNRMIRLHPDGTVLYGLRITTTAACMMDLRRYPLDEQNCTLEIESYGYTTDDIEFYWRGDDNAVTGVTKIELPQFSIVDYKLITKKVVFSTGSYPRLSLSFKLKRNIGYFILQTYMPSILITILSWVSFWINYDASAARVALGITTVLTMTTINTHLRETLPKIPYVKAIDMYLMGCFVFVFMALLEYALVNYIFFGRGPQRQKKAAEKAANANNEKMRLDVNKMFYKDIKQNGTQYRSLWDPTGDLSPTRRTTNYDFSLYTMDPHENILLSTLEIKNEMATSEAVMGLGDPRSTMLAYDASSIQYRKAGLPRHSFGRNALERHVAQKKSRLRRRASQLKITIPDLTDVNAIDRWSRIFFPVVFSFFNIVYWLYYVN

Test [15] deals with T6, Gamma-aminobutyric acid receptor subunit alpha-1/beta-3/gamma-2 (Mus musculus, UniProt P22723+P62812+P63080). In words: Positive allosteric modulation of C57BL/6 mouse GABAA receptor alpha1beta3gamma2 assessed as increase in GABA-induced current response at -60 mV holding potential by whole cell patch-clamp method relative to GABA. In kind it is protein-complex assay.
T6 sequence (P22723 whole entry): as the sequence (P22723 whole entry) above
T6 sequence (P62812 whole entry): as the sequence (P62812 whole entry) above
T6 sequence (P63080 whole entry): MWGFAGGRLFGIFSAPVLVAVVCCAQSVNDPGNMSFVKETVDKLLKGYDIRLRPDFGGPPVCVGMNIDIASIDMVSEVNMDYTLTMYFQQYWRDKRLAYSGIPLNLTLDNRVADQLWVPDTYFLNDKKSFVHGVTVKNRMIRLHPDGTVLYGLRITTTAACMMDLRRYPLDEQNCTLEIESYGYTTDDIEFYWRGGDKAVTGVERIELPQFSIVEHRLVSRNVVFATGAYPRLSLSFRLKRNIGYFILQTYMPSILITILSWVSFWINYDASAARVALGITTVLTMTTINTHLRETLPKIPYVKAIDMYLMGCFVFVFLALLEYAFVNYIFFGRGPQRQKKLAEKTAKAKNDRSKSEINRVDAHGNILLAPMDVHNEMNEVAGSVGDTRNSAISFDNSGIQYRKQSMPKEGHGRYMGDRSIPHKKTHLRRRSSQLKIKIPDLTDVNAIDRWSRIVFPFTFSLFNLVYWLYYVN
Test [16] addresses T6, Gamma-aminobutyric acid receptor subunit alpha-1/beta-3/gamma-2. Briefly: Inhibition of C57BL/6 mouse GABAA receptor alpha1beta3gamma2. Type of test: protein-complex assay.

pEC50, pIC50: −log10 of the molar value.

T4 sequence (P17787 whole entry): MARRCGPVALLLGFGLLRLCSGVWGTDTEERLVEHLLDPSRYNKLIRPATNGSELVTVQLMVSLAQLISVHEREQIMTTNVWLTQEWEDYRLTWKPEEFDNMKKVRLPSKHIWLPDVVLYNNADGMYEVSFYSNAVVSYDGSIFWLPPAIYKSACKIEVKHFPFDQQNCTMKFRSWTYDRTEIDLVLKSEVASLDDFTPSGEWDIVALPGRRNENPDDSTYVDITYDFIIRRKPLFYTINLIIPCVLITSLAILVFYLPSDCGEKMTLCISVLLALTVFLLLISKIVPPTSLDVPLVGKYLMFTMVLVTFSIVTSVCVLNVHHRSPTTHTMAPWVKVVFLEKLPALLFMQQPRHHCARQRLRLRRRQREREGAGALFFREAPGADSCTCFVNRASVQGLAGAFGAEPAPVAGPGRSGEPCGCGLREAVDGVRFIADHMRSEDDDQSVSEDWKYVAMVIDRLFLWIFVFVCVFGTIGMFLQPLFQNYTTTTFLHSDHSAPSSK
T4 sequence (P43681 whole entry): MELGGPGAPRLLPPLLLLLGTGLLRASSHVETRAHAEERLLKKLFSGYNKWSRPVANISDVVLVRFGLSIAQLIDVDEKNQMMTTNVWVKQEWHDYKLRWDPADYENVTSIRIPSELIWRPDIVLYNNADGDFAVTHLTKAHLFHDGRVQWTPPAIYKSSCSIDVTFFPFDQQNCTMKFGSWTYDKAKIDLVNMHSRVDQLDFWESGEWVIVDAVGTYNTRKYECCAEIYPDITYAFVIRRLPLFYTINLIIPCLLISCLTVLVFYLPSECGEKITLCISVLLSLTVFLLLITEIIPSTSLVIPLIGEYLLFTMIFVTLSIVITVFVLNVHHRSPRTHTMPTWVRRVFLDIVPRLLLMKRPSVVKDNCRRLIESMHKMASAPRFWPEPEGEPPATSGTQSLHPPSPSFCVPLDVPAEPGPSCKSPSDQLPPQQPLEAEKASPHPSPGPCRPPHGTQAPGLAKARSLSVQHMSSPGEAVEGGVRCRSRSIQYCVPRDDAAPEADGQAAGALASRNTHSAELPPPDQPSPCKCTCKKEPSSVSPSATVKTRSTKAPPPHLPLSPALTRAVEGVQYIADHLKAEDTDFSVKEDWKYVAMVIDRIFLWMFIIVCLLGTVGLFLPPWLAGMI
Sequence of Glycine receptor subunit alpha-3 (O75311 whole entry): as the sequence (O75311 whole entry) above
T3 sequence (O75311 whole entry): as above
T3 sequence (P48167 whole entry): as the sequence (P48167 whole entry, one chain of several) above

Take `O=S(=O)(NCCOc1cccc2cccnc12)c1ccc(F)cc1`: the pEC50 in [1] is 5.41. Moreover, the fold change (FC) turned out to be 28 in [2], 39.7 in [3], 0 in test [4] and 0 in test [5].
As to `C[C@H]1[C@H]2C(=O)N(C)c3ccncc3[C@H]2CN1S(=O)(=O)c1ccc2c(c1)OCO2`, the negative-log EC50 (pEC50) in test [6] was 7.49; in test [7] it was 7.80; in test [8], 7.18; in test [10] it was below 4.60; in [12], below 4.60; in test [14], below 4.30. The pEC50 in test [15] was below 4.52. The fold change (FC) in [9] turned out to be 11. Also, the figures for the negative-log IC50 (pIC50) in [11], in test [13] and in [16] were below 4.60, below 4.52 and below 4.52, respectively.
